Experimental data published in US10106516B2, “PDE10 inhibitors and related compositions and methods” (Omeros Corporation, priority 2010, dated 2018).

What was measured:
C57BL/6 male mice [1] = assay: PCP-induced hyperactivity model of psychosis; assay type: in vivo; settings: 10 mg/kg i.p., 5 min before PCP (5 mg/kg, i.p.); vs vehicle+PCP control
Procedure: (§1) Dosing of the compounds is by intraperitoneal (i.p.) injection or oral gavage (p.o.). Intraperitoneal injection is accomplished by restraining the animal, exposing the abdomen and inserting the needle just above the knees on the mouse's right side. Oral gavage is performed by restraining the animal in such a way that its head is tilted back and the esophagus is relatively straight. The gavage needle (20 G×1.5″, Cadence Science) is inserted into the mouth in line with the body and gently pushed along the esophagus and into the stomach. If resistance is encountered the needle is removed and reinserted.
Psychostimulant-induced hyperactivity is measured by injecting animals with PCP and monitoring the animals' activity levels in VersaMax chambers (Accuscan Instruments, Columbus, Ohio) measuring 40×40 cm. Locomotor activity is detected by photobeam breaks as the animal crosses each beam. The animal is placed in the center of the field and left undisturbed for 20 minutes to measure its spontaneous activity in a novel environment. Measurements used to assess locomotor activity include: horizontal activity, total distance traveled, vertical activity (rearing events—animal raises up on hindlimbs), rotation, stereotypy, and distance traveled in the center compared to total distance traveled (center:total distance ratio). The NMDA antagonist PCP induces a psychosis-like syndrome manifest as hyperactivity and increased stereotypic behavior. Known antipsychotics are able to reverse psychostimulant-induced hyperactivity and stereotypy.
(§2) C57BL/6 male mice were given either compound 1-1 or vehicle by intraperitoneal injection (FIG. 1) or oral gavage (FIG. 2). Twenty minutes (for i.p.) or forty minutes (for p.o.) later, they were injected with PCP (5 mg/kg, i.p.). Ten minutes later, the mice were placed in activity chambers and their locomotor activity in the horizontal dimension was monitored by infrared beam breaks for 20 min (5 consecutive 4-minute intervals (INT) as indicated).
as §2, with “2-1” for “1-1”, “3)” for “1)”, “4).” for “2).”, “40” for “forty”
as §2, with “11-1” for “1-1”, “injection. Five” for “injection (FIG. 1) or oral gavage (FIG. 2). Twenty”, “later” for “(for i.p.) or forty minutes (for p.o.) later,”

PDE10 = target: T1, PDE10 (Homo sapiens, UniProt Q9Y233); assay: PDE10 biochemical assay (two-step Thompson and Appleman method or SPA); settings: PDE10 inhibition
T1 construct: made in house; host or cells: Sf9 insect cells (baculovirus)
T1 sequence (Q9Y233 1-779 isoform Q9Y233-1): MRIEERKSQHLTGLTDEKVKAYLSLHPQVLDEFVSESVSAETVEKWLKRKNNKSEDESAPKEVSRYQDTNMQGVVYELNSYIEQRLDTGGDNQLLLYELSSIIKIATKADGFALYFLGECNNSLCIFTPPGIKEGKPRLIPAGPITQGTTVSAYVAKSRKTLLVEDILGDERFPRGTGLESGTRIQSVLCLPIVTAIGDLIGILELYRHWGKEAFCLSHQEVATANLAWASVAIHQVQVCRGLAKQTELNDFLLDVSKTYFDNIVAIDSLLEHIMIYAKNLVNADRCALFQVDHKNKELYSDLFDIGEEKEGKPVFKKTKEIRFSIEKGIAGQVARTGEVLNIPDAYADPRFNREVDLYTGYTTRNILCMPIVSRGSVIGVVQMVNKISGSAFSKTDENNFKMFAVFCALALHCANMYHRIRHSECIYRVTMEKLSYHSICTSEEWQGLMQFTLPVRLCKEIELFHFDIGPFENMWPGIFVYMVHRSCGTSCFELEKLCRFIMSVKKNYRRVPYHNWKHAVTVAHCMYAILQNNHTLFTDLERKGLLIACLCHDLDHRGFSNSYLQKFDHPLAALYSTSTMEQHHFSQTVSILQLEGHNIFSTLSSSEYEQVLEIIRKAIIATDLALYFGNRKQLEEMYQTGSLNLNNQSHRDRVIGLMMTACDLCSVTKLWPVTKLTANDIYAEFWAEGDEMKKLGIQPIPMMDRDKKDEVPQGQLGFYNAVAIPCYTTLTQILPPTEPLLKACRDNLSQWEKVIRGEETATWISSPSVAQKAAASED
Procedure: In short, cAMP is spiked with (^3H)cAMP and incubated with PDE10 and various concentrations of a compound of structure (I). After the appropriate incubation time, the reaction is terminated by heating. The mixture is then subjected to treatment with snake venom phosphatase. The phosphatase hydrolyzes any AMP in the mixture, but leaves unreacted cAMP intact. Thus, by separating cAMP from the mixture and determining its concentration (by radiography), the percent of inhibition can be determined. IC50 values can be calculated by performing the experiment at several concentrations using standard graphical means. A detailed description of the actual technique used for IC50 assays as set forth in following Examples.
The phosphodiesterase (PDE) assay was performed using recombinant human PDE 1A3, 2A3, 3 catalytic region, 4 catalytic region, 5 catalytic region, 7A, 8A, 9A2, 10A1 and 11A1 enzymes expressed in a baculoviral system using Sf9 cells. PDE activity was measured using a modification of the two-step method of Thompson and Appleman described above which was adapted for 96 well plate format. […] The final assay volume was 110 μl with assay buffer (10 mM MgCl2; 40 mM Tris.HCl; pH 7.4). Reactions were initiated with enzyme and incubated with (^3H)-substrate and substance for 20 minutes at 30° C. The reaction was terminated by denaturing the enzyme (heating the reaction to 70° C. for 2 minutes). The reaction was then cooled at 4° C. for 10 minutes before the addition of snake venom (Crotalus atrox, 0.2 mg/ml) for 10 minutes at 30° C., thus allowing non-specific hydrolysis of the tritiated substrate. Separation of the remaining unhydrolysed cyclic nucleotide was achieved by a batch binding of the mixture to activated Dowex (200 μl) anion exchange resin. The anion exchange resin bound the charged nucleotides, leaving only hydrolysed (^3H) substrate in the soluble fraction. The soluble fraction (50 μl) was then added to microscint-20 (200 μl) and counted on a Top Count Plate reader. Radioactivity units were plotted against inhibitor concentration and IC50 values obtained using Graph Pad Prism software.
Alternatively, phosphodiesterase activity was measured by scintillation proximity assay (SPA) with [^3H]-cGMP as substrate. Purified PDE10 was diluted and stored in 25 mM Tris-Cl (pH 8.0)/100 mM NaCl/0.05% Tween 20/50% glycerol/3 mM DTT. Assays contained (final concentrations): 50 mM Tris-Cl (pH 7.5)/8.3 mM MgCl2/1.7 mM EGTA/0.5 mg/ml BSA/5% DMSO and 2 ng PDE10 in a final volume of 0.1 mL. Inhibition was evaluated at 8 concentrations in duplicate. Reactions were initiated by addition of enzyme and were terminated after 20 minutes at 30° C. by the addition of 50 μl of SPA beads containing Zn^++. The mixture was shaken, allowed to settle for 3 hours, and counted in a Wallac plate counter. Results (net cpm) were fitted to a four parameter logistic model using Excel Solver®.

C57BL/6 male mice [2] = assay: Conditioned avoidance response (CAR) model of psychosis; assay type: in vivo; settings: vs vehicle
Procedure: as §1
Conditioned avoidance response (CAR) is a behavioral test to evaluate the antipsychotic effect of a test compound. It utilizes a shuttle box (Med Associates, St. Albans, Vt.) with two identical chambers separated by a retractable door. Each chamber is fitted with a metal grid floor that is capable of delivering electric shocks independently. A computer program is used to implement the testing paradigm as well as record the animal's movement between the two chambers through infrared beam sensors. The testing paradigm is as follows. A mouse is placed into one chamber. A light (conditioned stimulus, CS) comes on. Five seconds later, mild electric shocks (0.4 mA; (unconditioned stimulus, US) are delivered to the chamber where the mouse is located (as detected by infrared beams) until the mouse escapes to the adjacent chamber or until 10 sec has elapsed. The US and CS always co-terminate. With randomized inter-trial intervals averaging 15 sec, 30 such CS-US pairing trials are given to each mouse each day. For each trial, an escape response is registered if the mouse crosses to the other chamber after being shocked (i.e., during the 10-sec US period), and an avoidance response is registered if the mouse crosses to the other chamber during the first 5-sec CS only period. The animals are trained in this paradigm for 30-40 days, during which the average percentage of avoidance responses will improve to 80-90%. […] These trained animals are then used for compound testing with the same paradigm.
C57BL/6 male mice were trained in the CAR paradigm to predict and avoid the noxious stimulus (foot shock), reaching a plateau of approximately 25 avoidance responses per 30 trials each day. […] Vehicle treatment and compound treatment were given to the same animals on alternating days, and the effect of compound in reducing avoidance response was analyzed through within-subject comparison (paired t-test).
C57BL/6 male mice were trained in the CAR paradigm to predict and avoid the noxious stimulus (foot shock), reaching a plateau of approximately 25-28 avoidance responses per 30 trials (“training plateau”) each day. […] Vehicle treatment and compound treatment were given to the same animals on alternating days, and the effect of compound in reducing avoidance response was analyzed through within-subject comparison (paired t-test).

[3] = 2 mg/kg oral gavage, 55 minutes prior to testing
[4] = 5 mg/kg oral gavage, 55 minutes prior to testing
[5] = 10 mg/kg oral gavage, 55 minutes prior to testing
[6] = 10 mg/kg oral gavage, 25 minutes prior to testing

SMILES	IC50 (PDE10) [nM]	reduction of number of avoidance responses (CAR) (C57BL/6 male mice [2]; [4])	reduction of number of avoidance responses (CAR) (C57BL/6 male mice [2]; [5])	other results
COc1cc(-c2coc(C(=O)C(OC)c3ccc(-c4nnc(C)o4)cc3)n2)cc(OC)c1Br (stereo not drawn) [Compound 11-1, 1-(4-(4-Bromo-3,5-Dimethoxyphenyl)Oxazol-2-Yl)-2-Methoxy-2-(4-(5-Methyl-1,3,4-Oxadiazol-2-Yl)Phenyl)Ethanone]	≤ 1000	–	–	reduction of PCP-induced hyperactivity (horizontal locomotor activity) (C57BL/6 male mice [1]): significantly reduces
CCOC(C(=O)c1ccc(-c2cc(OC)c(Br)c(OC)c2)o1)c1ccc(-c2nnc(C)o2)cc1 (stereo not drawn) [Compound 47-1, 1-(5-(4-Bromo-3,5-Dimethoxyphenyl)Furan-2-Yl)-2-Ethoxy-2-(4-(5-Methyl-1,3,4-Oxadiazol-2-Yl)Phenyl)Ethanone]	≤ 1000	significantly reduces	significantly reduces	reduction of number of avoidance responses (CAR) (C57BL/6 male mice [2]; [3]): a trend that did not reach significance
COc1cc(-c2ccc(C(=O)C(OC)c3ccc(-c4nnc(C)o4)cc3)o2)cc(OC)c1OC (stereo not drawn) [Compound 36-1, 2-Methoxy-2-(4-(5-Methyl-1,3,4-Oxadiazol-2-Yl)Phenyl)-1-(5-(3,4,5-Trimethoxyphenyl)Furan-2-Yl)Ethanone]	≤ 1000	–	–	reduction of number of avoidance responses (CAR) (C57BL/6 male mice [2]; 5 mg/kg oral gavage, 25 minutes prior to testing): a trend that did not reach significance; reduction of number of avoidance responses (CAR) (C57BL/6 male mice [2]; [6]): a trend that did not reach significance; reduction of number of avoidance responses (CAR) (C57BL/6 male mice [2]; 15 mg/kg oral gavage, 25 minutes prior to testing): significantly reduces
COc1cc(-c2ccc(C(=O)C(OC)c3ccc(-c4nnc(C)o4)cc3)o2)cc(OC)c1Cl (stereo not drawn) [Compound 61-1, 1-(5-(4-Chloro-3,5-Dimethoxyphenyl)Furan-2-Yl)-2-Methoxy-2-(4-(5-Methyl-1,3,4-Oxadiazol-2-Yl)Phenyl)Ethanone]	≤ 1000	significantly reduces	significantly reduces	reduction of number of avoidance responses (CAR) (C57BL/6 male mice [2]; [3]): significantly reduces
CCOC(C(=O)c1ccc(-c2cc(OC)c(Cl)c(OC)c2)o1)c1ccc(-c2nnc(C)o2)cc1 (stereo not drawn) [Compound 63-1, 1-(5-(4-Chloro-3,5-Dimethoxyphenyl)Furan-2-Yl)-2-Ethoxy-2-(4-(5-Methyl-1,3,4-Oxadiazol-2-Yl)Phenyl)Ethanone]	≤ 1000	significantly reduces	significantly reduces	reduction of number of avoidance responses (CAR) (C57BL/6 male mice [2]; [3]): significantly reduces
COc1cc(-c2ccc(C(=O)C(OC)c3ccc(-c4nnc(C)s4)cc3)o2)cc(OC)c1Cl (stereo not drawn) [Compound 49-1, 1-(5-(4-Chloro-3,5-Dimethoxyphenyl)Furan-2-Yl)-2-Methoxy-2-(4-(5-Methyl-1,3,4-Thiadiazol-2-Yl)Phenyl)Ethanone]	≤ 1000	–	significantly reduces	–
COc1cc(-c2ccc(C(=O)C(OC)c3ccc(-c4nnc(C)s4)cc3)o2)cc(OC)c1Br (stereo not drawn) [Compound 34-1, 1-(5-(4-Bromo-3,5-Dimethoxyphenyl)Furan-2-Yl)-2-Methoxy-2-(4-(5-Methyl-1,3,4-Thiadiazol-2-Yl)Phenyl)Ethanone]	≤ 1000	–	–	reduction of number of avoidance responses (CAR) (C57BL/6 male mice [2]; [6]): significantly reduces
CCOC(C(=O)c1ccc(-c2cc(OC)c(Cl)c(OC)c2)o1)c1ccc(-c2nnc(C)s2)cc1 (stereo not drawn) [Compound 65-10]	≤ 1000	significantly reduces	significantly reduces	–
CCOc1c(OC)cc(-c2ccc(C(=O)C(OC)c3ccc(N4CCOCC4)cc3)o2)cc1OC (stereo not drawn) [Compound 29-1, 1-(5-(4-Ethoxy-3,5-Dimethoxyphenyl)Furan-2-Yl)-2-Methoxy-2-(4-Morpholinophenyl)Ethanone]	≤ 1000	–	–	–
COc1cc(-c2ccc(C(=O)C(OC)c3ccc(N4CCOCC4)cc3)s2)cc(OC)c1Br (stereo not drawn) [Compound 59-1, 1-(5-(4-Bromo-3,5-Dimethoxyphenyl)Thiophen-2-Yl)-2-Methoxy-2-(4-Morpholinophenyl)Ethanone]	≤ 1000	–	–	–
COc1cc(OC)cc(-c2ccc(C(=O)C(OC)c3ccc(N4CCOCC4)cc3)o2)c1 (stereo not drawn) [Compound 27-1, 1-(5-(3,5-Dimethoxyphenyl)Furan-2-Yl)-2-Methoxy-2-(4-Morpholinophenyl)Ethanone]	≤ 1000	–	–	–
COc1cc(-c2ccc(C(=O)C(OC)c3ccc(-c4nnc(C)o4)cc3)o2)cc(C#N)c1OC (stereo not drawn) [Compound 17-1, 2,3-Dimethoxy-5-(5-(2-Methoxy-2-(4-(5-Methyl-1,3,4-Oxadiazol-2-Yl)Phenyl)Acetyl)Furan-2-Yl)Benzonitrile]	≤ 1000	–	–	–
COc1cc(-c2ccc(C(=O)C(OC)c3ccc(-c4nnc(C)o4)cc3)o2)cc(OC)c1O (stereo not drawn) [Compound 65-15]	≤ 1000	–	–	–
